From patent US4442093A, “Method for administering 24,25-dihydroxycholecalciferol to persons suffering from hypercalcemia” (Kureha Kagaku Kogyo Kabushiki Kaisha, priority 1981, dated 1984)

Legend:
[1] = tested on: content of magnesium in serum; experiment: Serum magnesium in rats given puromycin aminonucleoside (Example 15); assay type: in vivo, male Wistar rats; details: AN 1.5 mg/100 g
Method: Forty male Wistar rats in 9th week after birth were divided into four groups, and the rats of each group were treated as follows.
To the rats of the first group were administered subcutaneously physiological saline solution once a day for continuous 12 days at a daily dose of 0.1 ml/100 g body weight with the simultaneous oral administration of triglyceride ester of fatty acid used in Example 1 (abbreviated as MCT) containing 0.1% by weight of ethanol once a day for continuous 12 days at a daily dose of 0.2 ml/100 g body weight followed by oral administration of only MCT once a day for another 3 continuous days at the same daily dose rate.
To the rats of the second group were subcutaneously administered a solution of 1.5 mg of puromycin aminonucleoside (abbreviated hereinafter as AN) in 0.1 ml of physiological saline solution once a day for continuous 12 days at a daily dose rate of 1.5 mg of AN/100 g body weight. The saline solution had been sterilized with a Milipore filter before administration. To the rats were further administered orally MCT in the same manner as in those of the first group. […]
On 15th day after the commencement of the above-mentioned administration, blood specimen was collected from all the rats, and after preparing each specimen of serum from each blood specimen, the content of magnesium in each serum specimen was determined by atomic absorption method. […]

[2] = tested on: inorganic phosphate in serum; experiment: Serum inorganic phosphate in chronic renal failure patients under hemodialysis (Example 21); assay type: in vivo, human
Method: Eight patients suffering from chronic renal failure under the treatment of hemodialysis two times a week while using a dialysate containing 9 to 10 mg/dl of calcium component were further treated by oral administration of 24R,25-(OH)2 -D3 in a form of the soft capsule composition obtained in Example 6 at a daily dose of 2 to 10 micrograms for 6 weeks, and the concentration of inorganic phosphate in the serum of each patient before the commencement of the administration and that after completion of the administration were determined by Molybdenum Blue method.

[3] = tested on: ulcer found on the duodenum; experiment: Healing of acetic acid induced duodenal ulcer (Example 10); assay type: in vivo, male rats; details: 20 µg/kg/day oral, 10 days
Method: Fourty five male rats of body weight of 240 to 260 g were equally divided into three groups, each consisting of 15 animals, and they were subjected to an operation following the method of Okabe et al. (refer to Amer. J. Dig. Dia., 16, 277, 1971), in which under anesthesia by ether, a circular frame made of a metal was placed on the serosa 5 to 7 mm from the pylorus and 0.06 ml of gracial acetic acid was poured onto the round part within the frame and after 30 sec, the acetic liquid was removed with the frame.
The thus operated rats of the first group were administered orally with a suspension of […] of 24R,25-(OH)2 -D3 in Panacete®810 containing 0.2% by weight of ethanol once a day for continuous 10 days from the third day of the operation at a daily dose rate of 20 micrograms of 24R,25-(OH)2 -D3 /kg. To the thus operated rats of the second group (control), only Panacete®810 was orally administered at a daily dose rate of 2 ml/kg for continuous 10 days.
The thus operated rats of the third group were used in the comparative test. Namely, they were treated in the same manner as those of the first group except for administration of gefarnate (3,7-dimethyl-2,6-octadienyl-5,9,13-trimethyl-4,8,12-tetradecatrienoate) at a daily dose rate of 20 microgram/kg body weight in stead of 24R,25-(OH)2 -D3 in the first group.
After finishing the final administration, all the rats were sacrificed by ether and their duodenum was taken out for autopsy. The length and the width of the ulcer found on the duodenum were measured, and their product with a unit of mm^2 was taken and named as the ulcer coefficient. The rate of healing of the ulcer was calculated by the following formula: [formula] wherein C is the ulcer coefficient of control and U is the ulcer coefficient of the group to which the present compound was administered.

With `C=C1CC[C@H](O)C/C1=C/C=C1\CCC[C@]2(C)[C@@H]([C@H](C)CC[C@@H](O)C(C)(C)O)CC[C@@H]12` [24R,25-(OH)2 -D3] as the molecule, how does the Mg in serum ([1]; 3rd group, dose 1 per 100 g b.w. oral 12 days) read?
The Mg in serum was 4.5 ± 0.32 mg/dL.

And the Mg in serum ([1]; 4th group, dose 10 per 100 g b.w. oral 12 days)?
Its Mg in serum is 4.3 ± 0.30 mg/dL.

And the “metastatic calcification (roentgenographic examination)” value ([2]; all patients, after completion of the administration)?
Its value is “metastatic calcification was not recognized”.

What about the “Concentration of inorganic phosphorus after administration, average” value ([2]; average of 8 patients, 2 to 10 µg/day, 6 weeks) of the same molecule?
Its value is 4.36 ± 0.76 mg/dL.

What about the “Concentration of inorganic phosphorus before administration, average” value ([2]; average of 8 patients, baseline) of the same molecule?
Its value is 6.63 ± 0.77 mg/dL.

What about the “osteomalacia (bone biopsy)” value ([2]; one patient, after completion of the administration) of the same molecule?
Its value is “improvement of osteomalacia was confirmed”.

What about the “Concentration of inorganic phosphorus after administration” value ([2]; patient 1 (person fifteen), 8 µg/day, 6 weeks) of the same molecule?
The value was 4.9 mg/dL.

What about the “Concentration of inorganic phosphorus before administration” value ([2]; patient 1 (person fifteen), baseline) of the same molecule?
Its value is 7.2 mg/dL.

And the “Concentration of inorganic phosphorus after administration” value ([2]; patient 2 (person one), 6 µg/day, 6 weeks)?
Its value is 4.7 mg/dL.

What about the “Concentration of inorganic phosphorus before administration” value ([2]; patient 2 (person one), baseline) of the same molecule?
The value was 6.7 mg/dL.

What about the “Concentration of inorganic phosphorus after administration” value ([2]; patient 3 (person five), 10 µg/day, 6 weeks) of the same molecule?
Its value is 5.2 mg/dL.

What about the “Concentration of inorganic phosphorus before administration” value ([2]; patient 3 (person five), baseline) of the same molecule?
The value was 8.0 mg/dL.

What about the “Concentration of inorganic phosphorus after administration” value ([2]; patient 4 (person nine), 4 µg/day, 6 weeks) of the same molecule?
The value was 4.2 mg/dL.

And the “Concentration of inorganic phosphorus before administration” value ([2]; patient 4 (person nine), baseline)?
Its value is 5.8 mg/dL.

And the “Concentration of inorganic phosphorus after administration” value ([2]; patient 5 (person eleven), 8 µg/day, 6 weeks)?
The value was 5.3 mg/dL.

What about the “Concentration of inorganic phosphorus before administration” value ([2]; patient 5 (person eleven), baseline) of the same molecule?
The value was 7.1 mg/dL.

What about the “Concentration of inorganic phosphorus after administration” value ([2]; patient 6 (person eighteen), 6 µg/day, 6 weeks) of the same molecule?
The value was 3.5 mg/dL.

And the “Concentration of inorganic phosphorus before administration” value ([2]; patient 6 (person eighteen), baseline)?
Its value is 6.3 mg/dL.

What about the “Concentration of inorganic phosphorus after administration” value ([2]; patient 7 (person eight), 2 µg/day, 6 weeks) of the same molecule?
The value was 3.5 mg/dL.

And the “Concentration of inorganic phosphorus before administration” value ([2]; patient 7 (person eight), baseline)?
The value was 5.8 mg/dL.

What about the “Concentration of inorganic phosphorus after administration” value ([2]; patient 8 (person thirteen), 6 µg/day, 6 weeks) of the same molecule?
The value was 3.6 mg/dL.

What about the “Concentration of inorganic phosphorus before administration” value ([2]; patient 8 (person thirteen), baseline) of the same molecule?
Its value is 6.1 mg/dL.

And the “inorganic phosphate level in serum” value ([2]; patient of chronic renal failure given hemodialysis)?
The value was “significant reduction of the inorganic phosphate level in their serum to the normal level”.

What about the ulcer coefficient [3] of the same molecule?
The ulcer coefficient was 1.5 mm^2.

What about the “rate of ulcer healing” value ([3]; vs control) of the same molecule?
The value was 80%.
